Reference: US20100144725A1, “PESTICIDAL COMBINATIONS” (SYNGENTA CROP PROTECTION, INC., priority 2007, published 2010)

Assays:
Pyrenophora graminea = assay: Fungal growth assay, Pyrenophora graminea (leaf stripe of barley), microtiter plate, photometric; assay type: cell-based; conditions: 72 hrs
Protocol: The action to be expected E for a given active ingredient combination obeys the so-called COLBY formula and can be calculated as follows (COLBY, S. R. “Calculating synergistic and antagonistic responses of herbicide combination”. Weeds, Vol. 15, pages 20-22; 1967): If the action actually observed (O) is greater than the expected action (E), then the action of the combination is super-additive, i.e. there is a synergistic effect. Inhibiting of fungal growth of the following fungi are carried out by fungal growth assays (detailed below). Pyrenophora […] stripe of barley): Conidia of the fungus from cryogenic storage are directly mixed into nutrient broth (PDB potato dextrose broth). After placing a (DMSO) solution of the test compounds into a microtiter plate (96-well format) the nutrient broth containing the fungal spores is added. The test plates are incubated at 24 C and the inhibition of growth is measured photometrically after 72 hrs. The fungicide interactions in the combinations are calculated according to COLBY method, where A is thiabendazole and B is a mixture of tebuconazole and azoxystrobin in a mass ratio of 2:1. The results for A & B solo are shown in Table below and those for the combinations in a range of ratios in Table 1.

Rhizoctonia solani = assay: Fungal growth assay, Rhizoctonia solani (foot rot, damping-off), microtiter plate, photometric; assay type: cell-based; conditions: 72 hrs
Protocol: The action to be expected E for a given active ingredient combination obeys the so-called COLBY formula and can be calculated as follows (COLBY, S. R. “Calculating synergistic and antagonistic responses of herbicide combination”. Weeds, Vol. 15, pages 20-22; 1967): If the action actually observed (O) is greater than the expected action (E), then the action of the combination is super-additive, i.e. there is a synergistic effect. Inhibiting of fungal growth of the following fungi are carried out by fungal growth assays (detailed below). Rhizoctonia solani (foot rot, damping-off): Mycelial fragments of a newly grown culture of the fungus are directly mixed into nutrient broth (PDB potato dextrose broth). After placing a (DMSO) solution of the test compounds into a microtiter plate (96-well format) the nutrient broth containing the fungal spores is added. The test plates were incubated at 24 C and the inhibition of growth is measured photometrically after 72 hrs. The fungicide interactions in the combinations are calculated according to COLBY method, where C is ipconazole and D is a mixture of tebuconazole and azoxystrobin in a mass ratio of 2:1. The results for C & D solo are shown in Table below and those for the combinations in a range of ratios in Table 2.

SMILES	Observed control in % (Pyrenophora graminea; A solo 0.004 ppm)	Observed control in % (Pyrenophora graminea; A solo 0.008 ppm)	Observed control in % (Pyrenophora graminea; A solo 0.016 ppm)	Observed control in % (Pyrenophora graminea; A solo 0.031 ppm)	Observed control in % (Pyrenophora graminea; A solo 0.063 ppm)	Observed control in % (Pyrenophora graminea; A solo 0.125 ppm)	Observed control in % (Pyrenophora graminea; A solo 0.25 ppm)	Observed control in % (Pyrenophora graminea; A solo 0.5 ppm)	Observed control in % (Pyrenophora graminea; A solo 1.0 ppm)	Observed control in % (Pyrenophora graminea; A solo 2.0 ppm)	Observed control in % (Rhizoctonia solani; C solo 0.004 ppm)	Observed control in % (Rhizoctonia solani; C solo 0.008 ppm)	Observed control in % (Rhizoctonia solani; C solo 0.016 ppm)	Observed control in % (Rhizoctonia solani; C solo 0.031 ppm)	Observed control in % (Rhizoctonia solani; C solo 0.063 ppm)	Observed control in % (Rhizoctonia solani; C solo 0.125 ppm)	Observed control in % (Rhizoctonia solani; C solo 0.25 ppm)	Observed control in % (Rhizoctonia solani; C solo 0.5 ppm)	Observed control in % (Rhizoctonia solani; C solo 1.0 ppm)	Observed control in % (Rhizoctonia solani; C solo 2.0 ppm)
c1ccc2[nH]c(-c3cscn3)nc2c1 [A, thiabendazole]	0%	0%	0%	0%	0%	1%	10%	25%	29%	22%	–	–	–	–	–	–	–	–	–	–
CC(C)C1CCC(Cc2ccc(Cl)cc2)C1(O)Cn1cncn1 (centres unmarked) [C, ipconazole]	–	–	–	–	–	–	–	–	–	–	9%	3%	0%	7%	0%	0%	2%	5%	0%	9%
